Reference: patent publication EP4810492A1, “NMT INHIBITOR, PREPARATION METHOD THEREFOR, AND USE THEREOF” (Nanjing Synnocare Pharmaceutical Technology Co., Ltd., priority 2023, dated 2025)
Where two headings read alike, the source gives them in different places.

Key:
[1] = tested on: MV-4-11 tumors; test: In vivo anti-tumor efficacy in MV-4-11 xenograft mouse model; conditions: female BALB/c nude mice, PO QD 30 mg/kg, Figure 2
From the text: (§1) To evaluate the effect of the compounds of the present invention on tumor growth, an MV-4-11 human myelomonocytic leukemia xenograft mouse model was established. Female BALB/c nude mice were procured from Shanghai Jihui Laboratory Animal Care Co., Ltd. Upon arrival, the mice were 6-7 weeks old and weighed 18-22 g. They were housed in specific pathogen-free (SPF) individually ventilated cages (IVC) at a density of 2-6 mice per cage, with ad libitum access to standard diet and water. The housing environment was maintained at 20 - 26 °C (68 - 79 °F) with a relative humidity of 40-70%, under a 12-hour light/dark cycle (lights on from 05:00 to 17:00). The study commenced after a one-week acclimatization period.
(§2) Human myelomonocytic leukemia MV-4-11 cells (ATCC, CRL-9591) were maintained in suspension culture using IMDM medium (Gibco, 12440-053) supplemented with 10% heat-inactivated fetal bovine serum (FBS; Gibco, 10099-141C) at 37 °C in a 5% CO2 atmosphere. Cells were passaged 2-3 times per week. Upon reaching the exponential growth phase, cells were harvested, counted, and inoculated subcutaneously into the right dorsal flank of female nude mice. Each mouse received a 200 µL suspension containing 8 × 10^6 MV-4-11 cells (100 µL cell suspension + 100 µL Matrigel basement membrane matrix, Corning, 354234). Thirteen days post-inoculation, when subcutaneous tumor volumes reached 100 - 300 mm^3 , tumor-bearing mice with appropriate morphology and uniform size were selected. Using stratified randomization, mice were assigned to experimental groups (n = 5 per group). Oral administration (PO, once daily [QD]) was initiated on the day of grouping, with all compounds of the present invention dosed at 30 mg/kg. During the dosing period, tumor diameters were measured twice weekly using digital calipers, and body weights were recorded. In the posttreatment observation period, tumor diameters and body weights were measured once weekly. Tumor volume (V) was calculated using the formula: V = 0.5 *a * b^2 , where a represents the long diameter and b represents the short diameter of the tumor.
(§3) The anti-tumor efficacy of the compounds was evaluated using the tumor growth inhibition percentage (TGI%), calculated by the formula: TGI(%) = [1 - (TVi - TV0) / (TVVi - TVV0)] *100%, where TV0 and TVV0 represent the mean tumor volumes on day 0 for the treatment and control groups, respectively, and TVi and TVVi represent the mean tumor volumes on day i for the treatment and control groups, respectively. Data were plotted using GraphPad Prism software. Tumor volume and body weight data are expressed as mean ± SEM and plotted as a function of time.

[2] = tested on: MV-4-11 cells; test: Anti-proliferative activity against MV-4-11 cells (cell viability chemiluminescence); format: cell-based; conditions: MV4-11, 72 h, MV-4-11 human monocytic leukemia cells, three days of exposure
Protocol: This study utilized a cell proliferation assay to analyze the cytotoxicity of MV-4-11 human monocytic leukemia cells after three days of exposure to NMT1 inhibitors. The MV-4-11 cell line was purchased from Nanjing Cobuilder Biotechnology Co., Ltd., and cultured in IMDM medium (Viva cell) in an incubator (Thermo) at 37 °C with 5% CO2. In this experiment, NMT1 inhibitors were dissolved in DMSO to obtain 600 µM stock solutions. Dose-response solutions were prepared with a top endpoint compound concentration of 3 µM, followed by three-fold serial dilutions in DMSO, totaling eight data points. The final concentration of DMSO was 0.5%.
MV-4-11 cells were seeded into a white 96-well plate, 80 µL of cell suspension per well, containing 6000 MV-4-11 cells. The cell plate was placed in the CO2 incubator for overnight culture. Then, 20 µL of NMT1 inhibitor solutions at different concentrations were added to the wells. The 96-well plate was placed back into the incubator for three days. Another cell plate was prepared, and the signal was read on the day of drug addition to serve as the maximum value (Max value in the equation below) for data analysis. To this cell plate, 25 µL of cell viability chemiluminescence detection reagent was added per well, followed by incubation at room temperature for 10 minutes to stabilize the luminescence signal. A multi-label analyzer was used for reading.
The raw data were converted into inhibition rates using the equation (Sample - Min) / (Max - Min) * 100%. The IC50 values were then determined by fitting a four-parameter curve (using the "log(inhibitor) vs. response - Variable slope" model in GraphPad Prism). Min: wells treated with 0.5% DMSO; Max: Day 0 wells. Table 1 provides the inhibitory activity of the compounds of the invention on MV-4-11 cell proliferation. Table 1: Compound Inhibitory Activity against NMT1 Enzyme (IC50) and Anti-proliferative Activity against MV-4-11 Cell line (IC50)

[3] = Body weight of MV-4-11 xenograft model mice (tolerability); format: in vivo; conditions: female BALB/c nude mice, PO QD 30 mg/kg; for Body weight: Figure 1
From the text: as §1, §2, §3

[4] = target: T1, NMT1 enzyme (Homo sapiens, UniProt P30419); test: Inhibitory activity on NMT1 enzyme catalysis (fluorescence intensity assay); format: biochemical
T1 sequence (P30419 1-496): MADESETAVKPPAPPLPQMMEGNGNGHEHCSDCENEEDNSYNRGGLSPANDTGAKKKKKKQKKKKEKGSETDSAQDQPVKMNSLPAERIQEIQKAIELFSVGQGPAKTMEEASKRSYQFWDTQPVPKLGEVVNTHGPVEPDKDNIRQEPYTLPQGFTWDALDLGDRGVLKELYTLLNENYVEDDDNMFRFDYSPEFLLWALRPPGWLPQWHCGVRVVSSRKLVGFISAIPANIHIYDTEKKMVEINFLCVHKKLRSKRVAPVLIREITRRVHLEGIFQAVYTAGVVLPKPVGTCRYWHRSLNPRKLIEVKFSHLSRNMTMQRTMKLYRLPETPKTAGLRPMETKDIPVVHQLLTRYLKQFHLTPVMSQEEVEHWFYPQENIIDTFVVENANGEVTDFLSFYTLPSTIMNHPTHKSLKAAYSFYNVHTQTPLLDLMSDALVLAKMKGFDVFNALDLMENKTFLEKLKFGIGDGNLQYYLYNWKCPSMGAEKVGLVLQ
Protocol: This study evaluated the ability of the compounds of the invention to inhibit NMT1 catalytic activity in vitro. […] The final concentration of the NMT1 enzyme was 6 nM, the final concentration of CPM (Reactive thiol fluorescence probe, Invitrogen, D346) was 1 µM, the final concentration of HSPP60 SRC was 20 µM, and the final concentration of DMSO was 0.5%.
Compounds were dissolved in DMSO to obtain 10 mM stock solutions. Dose-response solutions were prepared with a top endpoint compound concentration of 3 mM, followed by three-fold serial dilutions in DMSO, totaling ten data points. […] Then, 2.5 µL of the NMT1 enzyme working solution was added to the 384-well assay plate, followed by incubation at 25 °C for 10 minutes. Subsequently, 5 µL of the CPM and myristoyl-CoA working solution was added, the plate was centrifuged at 1000 rpm for 1 minute, and then 2.5 µL of the HSPP60 SRC working solution was added to initiate the reaction. The reaction was incubated at 25 °C for 45 minutes.
The IC50 curve of the compounds was fitted using the software XLfit 5.5.0 according to the nonlinear regression equation.

[5] = Plasma concentrations in mice following oral administration; conditions: for concentration at 1 h / concentration at 4 h / concentration at 8 h: ICR, mouse, po, 10 mg/kg
From the text: This study evaluated the plasma concentrations of the compounds of the present invention in mice. ICR mice were procured from JOINN Laboratories (Suzhou) Co., Ltd. At the initiation of dosing, the animals were 6-8 weeks old and weighed 18-25 g. Mice were housed in transparent plastic cages (400 mm*240 mm*200 mm). The animal facility maintained a 12-hour light/12-hour dark cycle (lights on 07:00-19:00) using fluorescent lighting. The dark period may be intermittently interrupted as required for study-related activities. Ambient temperature and relative humidity were controlled within 20-26 °C and 40-70%, respectively. Animals were fed certified rodent chow and provided with drinking water filtered and sterilized through an ultrapure water system. All animals had ad libitum access to water throughout the study. Animals were fasted for at least 12 hours prior to dosing, and food was restored 4 hours post-dosing.
Prior to dosing, body weights were recorded, and healthy animals with similar weights were selected and randomly assigned to groups (n = 3 per group) based on body weight. The compounds were formulated in a 0.5% aqueous carboxymethyl cellulose (CMC) solution and administered orally at a single dose of 10 mg/kg. Blood samples (≥0.2 mL) were collected via venipuncture at 1 h and 4 h post-dose into EDTA-K2 anticoagulant tubes. Tubes were gently inverted to mix, immediately placed in an ice-water bath, and rapidly centrifuged at 4,000 rpm for 10 min at 4 °C to separate plasma. Plasma was stored at -70 °C until analysis.
Calibration curve and QC plasma samples: Working solutions for the calibration curve and QC samples were prepared using 80% methanol in water (Thermo Fisher) as the diluent. To prepare plasma calibration standards and QC samples, 5 µL of each working solution was added to 45 µL of blank plasma and mixed. To the prepared calibration and QC samples, 300 µL of internal standard solution (tolbutamide at 8 µg/mL in acetonitrile, Thermo Fisher) was added. […] The supernatant was collected and analyzed by liquid chromatography-tandem mass spectrometry (LC-MS/MS; AB Sciex API 5000).
Plasma sample pretreatment: After thawing at room temperature, 50 µL of each plasma sample was mixed with 300 µL of the internal standard solution (tolbutamide at 8 µg/mL in acetonitrile, Thermo Fisher). […] The supernatant was collected and analyzed by LC-MS/MS (AB Sciex API 5000).
Raw chromatograms, concentrations, and accuracy data were generated using Analyst software version 1.6.3.

[6] = 6 nM NMT1 enzyme, 1.25 µM myristoyl-CoA, 20 µM HSPP60 SRC peptide, 45 minutes at 25 °C, read-out: NMT1 (IC50)

IC50 [2]	IC50 [4, 6]	concentration at 1 h [5]	concentration at 4 h [5]	concentration at 8 h [5]	SMILES	Tumor volume / growth of MV-4-11 tumors [1]	Body weight [3]	Weight loss ([3]; later phase)	IC50 ([2]; Homo sapiens)	IC50 [4]	1 h Concentration ([5]; ICR mice, oral single dose of 10 mg/kg in 0.5% CMC, 1 h post-dose, Mean ± SEM, n = 3)	4 h Concentration ([5]; ICR mice, oral single dose of 10 mg/kg in 0.5% CMC, 4 h post-dose, Mean ± SEM, n = 3)	8 h Concentration ([5]; ICR mice, oral single dose of 10 mg/kg in 0.5% CMC, 8 h post-dose, Mean ± SEM, n = 3)
43.7 nM	5.38 nM	2970 ± 855 ng/mL	3260 ± 876 ng/mL	1960 ± 467 ng/mL	Cc1c(NS(=O)(=O)c2c(Cl)cc(-c3ccc4oc5c(c4c3)CNCC5)cc2Cl)c(CC(C)C)nn1C [Compound 45]	significantly inhibited the growth of MV-4-11 tumors and induced tumor regression	slight weight loss in the later phase	≤ 10%	–	–	–	–	–
15 nM	3.45 nM	2407 ± 21 ng/mL	1980 ± 417 ng/mL	1140 ± 551 ng/mL	Cc1c(NS(=O)(=O)c2c(Cl)cc(-c3ccc4sc5c(c4c3)CNCC5)cc2Cl)c(CC(C)C)nn1C [Compound 3]	significantly inhibited the growth of MV-4-11 tumors and induced tumor regression	no weight loss throughout the study	–	–	–	–	–	–
–	–	–	–	–	Cc1c(NS(=O)(=O)c2c(Cl)cc(-c3ccc4sc5c(c4c3)CNCC5)cc2Cl)c(CC#N)nn1C [Compound 13]	significantly inhibited the growth of MV-4-11 tumors and induced tumor regression	no weight loss throughout the study	–	19.3 nM	3.21 nM	1893 ± 196 ng/mL	623 ± 109 ng/mL	334 ± 83 ng/mL
5.43 nM	3.09 nM	2890 ± 858 ng/mL	1960 ± 190 ng/mL	915 ± 97 ng/mL	CCc1nn(C)c(C)c1NS(=O)(=O)c1c(Cl)cc(-c2ccc3sc4c(c3c2)CNCC4)cc1Cl [Compound 2]	significantly inhibited the growth of MV-4-11 tumors and induced tumor regression	slight decrease in body weight during the early phase of dosing, which subsequently returned to normal	–	–	–	–	–	–
